Among the data in US20100256104A1, “NOVEL AMIDE COMPOUNDS” (ASTRAZENECA R&D, priority 2009, published 2010) are IC50 values, retold here.

This test has as its target T1, recombinant human GR (Homo sapiens, UniProt P04150).
T1 construct: purchased Panvera/Invitrogen P2812 (kit P2893)
T1 sequence (P04150 1-777): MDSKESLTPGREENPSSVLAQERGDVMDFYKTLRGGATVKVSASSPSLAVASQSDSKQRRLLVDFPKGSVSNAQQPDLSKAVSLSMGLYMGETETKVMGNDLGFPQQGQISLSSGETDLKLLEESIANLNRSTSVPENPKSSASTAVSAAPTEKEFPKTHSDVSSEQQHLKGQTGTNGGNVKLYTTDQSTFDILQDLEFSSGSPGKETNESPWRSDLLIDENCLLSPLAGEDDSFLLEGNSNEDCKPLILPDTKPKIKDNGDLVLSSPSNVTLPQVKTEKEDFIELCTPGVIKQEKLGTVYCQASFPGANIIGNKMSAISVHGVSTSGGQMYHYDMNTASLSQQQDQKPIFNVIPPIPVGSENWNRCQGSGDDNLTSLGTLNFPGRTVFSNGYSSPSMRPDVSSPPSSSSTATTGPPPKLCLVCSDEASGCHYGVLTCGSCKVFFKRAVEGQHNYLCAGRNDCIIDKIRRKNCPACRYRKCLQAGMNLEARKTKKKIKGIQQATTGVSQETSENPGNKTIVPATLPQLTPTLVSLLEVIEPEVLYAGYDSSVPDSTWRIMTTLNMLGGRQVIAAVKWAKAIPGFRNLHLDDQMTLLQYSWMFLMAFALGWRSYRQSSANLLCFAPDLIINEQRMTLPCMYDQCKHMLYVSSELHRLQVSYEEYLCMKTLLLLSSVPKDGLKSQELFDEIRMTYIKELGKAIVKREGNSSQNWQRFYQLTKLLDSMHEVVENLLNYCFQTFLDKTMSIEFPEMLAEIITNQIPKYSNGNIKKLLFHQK
Description: Human Glucocorticoid Receptor (GR) Assay, fluorescence polarization competition with GS Red tracer. The note with it: 2 hours at room temperature, 100% control 10 μM Dexamethasone, XLfit model 205, read-out: Inhibition of GR binding, IC50. The gist of the method:
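Fluorescence polarization competition: recombinant human GR with GS Red tracer, stabilizing peptide and DTT in potassium phosphate/sodium molybdate/EDTA buffer. 2 h in dark at room temperature, read at ex 530/em 590 nm. Controls: DMSO (0%) and 10 μM dexamethasone (100%).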

pIC50: −log10 of the molar value.

For the molecule `COCC(=O)O[C@]1(C(=O)SCC#N)CC[C@H]2[C@@H]3CCC4=Cc5c(cnn5-c5cccc(C(=O)NCC(N)=O)c5)C[C@]4(C)[C@H]3[C@@H](O)C[C@@]21C` [Example 51, (1R,3aS,3bS,10aR, 10bS,11S,12aS)-7-{3-[(2-amino-2-oxoethyl)carbamoyl]phenyl}-1-{[(cyanomethyl)sulfanyl]carbonyl}-11-hydroxy-10a,12a-dimethyl-1,2,3,3a,3b,4,5,7,10, 10a,10b,11,12,12a-tetradecahydrocyclo-penta[5,6]naphtho [1,2-f]indazol-1-yl methoxyacetate], the pIC50 (as a rule, the IC50 on a negative log10 scale, so that one unit is a factor of ten) was 8.55.

As for `COCC(=O)O[C@]1(C(=O)SCC#N)CC[C@H]2[C@@H]3CCC4=Cc5c(cnn5-c5cccc(C(=O)NCc6cccnc6)c5)C[C@]4(C)[C@H]3[C@@H](O)C[C@@]21C` [Example 52, (1R,3aS,3bS,10aR, 10bS,11S,12aS)-1-{[(cyanomethyl)sulfanyl]carbonyl}-11-hydroxy-10a,12a-dimethyl-7-{3-[(pyridin-3-ylmethyl)carbamoyl]phenyl}-1,2,3,3a,3b,4,5,7,10, 10a,10b,11,12,12a-tetradecahydrocyclo-penta[5,6]naphtho [1,2-f]indazol-1-yl methoxyacetate], the pIC50 is 8.82.

In the case of `CSC(=O)[C@@]1(OC(=O)C2CC2)CC[C@H]2[C@@H]3CCC4=Cc5c(cnn5-c5cccc(C(=O)N6CCC[C@@H]6C(N)=O)c5)C[C@]4(C)[C@@]3(F)[C@@H](O)C[C@@]21C` [Example 53, (1R,3aS,3bS,10aS,10bR,11S,12aS)-7-(3-{[(2R)-2-carbamoylpyrrolidin-1-yl]carbonyl}phenyl)-10b-fluoro-11-hydroxy-10a,12a-dimethyl-1-[(methylsulfanyl)carbonyl]-1,2,3,3a,3b,4,5,7,10,10a,10b,11,12,12a-tetradecahydrocyclopenta[5,6]naphtho[1,2-f]indazol-1-yl cyclopropanecarboxylate], the pIC50 is 8.60.

With `C[C@]12Cc3cnn(-c4cccc(C(=O)N5CCC[C@@H]5C(N)=O)c4)c3C=C1CC[C@H]1[C@@H]3CC[C@](OC(=O)C4CC4)(C(=O)SCC#N)[C@@]3(C)C[C@H](O)[C@@]12F` [Example 54, (1R,3aS,3bS,10aS, 10bR,11S,12aS)-7-(3-{[(2R)-2-carbamoyl-pyrrolidin-1-yl]carbonyl}phenyl)-1-{[(cyanomethyl)sulfanyl]carbonyl}-10b-fluoro-11-hydroxy-10a,12a-dimethyl-1,2,3,3a, 3b,4,5,7,10,10a,- 10b,11,12,12a-tetradeca-hydrocyclo-penta[5,6]naphtho [1,2-f]indazol-1-yl cyclopropanecarboxylate], the pIC50 was 8.38.

As for `C[C@]12Cc3cnn(-c4cccc(C(=O)N5CCC[C@@H]5C(N)=O)c4)c3C=C1CC[C@H]1[C@@H]3CC[C@](OC(=O)C4CC4)(C(=O)SCF)[C@@]3(C)C[C@H](O)[C@@]12F` [Example 55, (1R,3aS,3bS,10aS, 10bR,11S,12aS)-7-(3-{[(2R)-2-carbamoyl-pyrrolidin-1-yl]carbonyl}phenyl)-10b-fluoro-1-{[(fluoromethyl)sulfanyl]carbonyl}-11-hydroxy-10a,12a-dimethyl-1,2,3,3a,3b,4,5,7,10, 10a,10b,11,12,12a-tetradecahydrocyclo-penta[5,6]naphtho [1,2-f]indazol-1-yl cyclopropanecarboxylate], the pIC50 was 8.46.

Take `COCC(=O)O[C@]1(C(=O)SC)CC[C@H]2[C@@H]3CCC4=Cc5c(cnn5-c5cccc(C(=O)N6CCC[C@@H]6C(N)=O)c5)C[C@]4(C)[C@@]3(F)[C@@H](O)C[C@@]21C` [Example 56, (1R,3aS,3bS,10aS,10bR,11S,12aS)-7-(3-{[(2R)-2-carbamoylpyrrolidin-1-yl]carbonyl}phenyl)-10b-fluoro-11-hydroxy-10a,12a-dimethyl-1-[(methylsulfanyl)carbonyl]-1,2,3,3a,3b,4,5,7,10,10a,10b,11,12,12a-tetradecahydrocyclopenta[5,6]naphtho[1,2-f]indazol-1-yl methoxyacetate]: the negative-log IC50 (pIC50) was 8.07.

As for `COCC(=O)O[C@]1(C(=O)SCC#N)CC[C@H]2[C@@H]3CCC4=Cc5c(cnn5-c5cccc(C(=O)N6CCC[C@@H]6C(N)=O)c5)C[C@]4(C)[C@@]3(F)[C@@H](O)C[C@@]21C` [Example 57, (1R,3aS,3bS,10aS, 10bR,11S,12aS)-7-(3-{[(2R)-2-carbamoyl-pyrrolidin-1-yl]carbonyl}phenyl)-1-{[(cyanomethyl)sulfanyl]carbonyl}-10b-fluoro-11-hydroxy-10a,12a-dimethyl-1,2,3,3a,3b,4,5,7,10, 10a,10b,11,12,12a-tetradecahydrocyclo-penta[5,6]naphtho [1,2-f]indazol-1-yl methoxyacetate], the negative-log IC50 (pIC50) is 8.00.

Turning to `CCC(=O)O[C@]1(C(=O)SCCO)CC[C@H]2[C@@H]3CCC4=Cc5c(cnn5-c5cccc(C(=O)N6CCC[C@@H]6C(N)=O)c5)C[C@]4(C)[C@@]3(F)[C@@H](O)C[C@@]21C` [Example 58, (1R,3aS,3bS,10aS, 10bR,11S,12aS)-7-(3-{[(2R)-2-carbamoyl-pyrrolidin-1-yl]carbonyl}phenyl)-10b-fluoro-11-hydroxy-1-{[(2-hydroxyethyl)sulfanyl]carbonyl}-10a,12a-dimethyl-1,2,3,3a,3b,4,5,7,10, 10a,10b,11,12,12a-tetradecahydrocyclo-penta[5,6]naphtho [1,2-f]indazol-1-yl propanoate], the pIC50 was 8.16.

With `CCC(=O)O[C@]1(C(=O)SC)CC[C@H]2[C@@H]3CCC4=Cc5c(cnn5-c5cccc(C(=O)N6CCC[C@@H]6C(N)=O)c5)C[C@]4(C)[C@@]3(F)[C@@H](O)C[C@@]21C` [Example 59, (1R,3aS,3bS,10aS, 10bR,11S,12aS)-7-(3-{[(2R)-2-carbamoyl-pyrrolidin-1-yl]carbonyl}phenyl)-10b-fluoro-11-hydroxy-10a,12a-dimethyl-1-[(methylsulfanyl)carbonyl]-1,2,3,3a,3b,4,5,7,10, 10a,10b,11,12,12a-tetradecahydrocyclo-penta[5,6]naphtho [1,2-f]indazol-1-yl propanoate], the pIC50 was 8.48.

On to `CCC(=O)O[C@]1(C(=O)SCC#N)CC[C@H]2[C@@H]3CCC4=Cc5c(cnn5-c5cccc(C(=O)N6CCC[C@@H]6C(N)=O)c5)C[C@]4(C)[C@@]3(F)[C@@H](O)C[C@@]21C` [Example 60, (1R,3aS,3bS,10aS, 10bR,11S,12aS)-7-(3-{[(2R)-2-carbamoyl-pyrrolidin-1-yl]carbonyl}phenyl)-1-{[(cyanomethyl)sulfanyl]carbonyl}-10b-fluoro-11-hydroxy-10a,12a-dimethyl-1,2,3,3a, 3b,4,5,7,10,- 10a,10b,11,12,12a-tetradecahydro-cyclopenta[5,6]naphtho [1,2-f]indazol-1-yl propanoate], for which the pIC50 is 8.48.

Turning to `CCC(=O)O[C@]1(C(=O)SCF)CC[C@H]2[C@@H]3CCC4=Cc5c(cnn5-c5cccc(C(=O)N6CCC[C@@H]6C(N)=O)c5)C[C@]4(C)[C@@]3(F)[C@@H](O)C[C@@]21C` [Example 61, (1R,3aS,3bS,10aS, 10bR,11S,12aS)-7-(3-{[(2R)-2-carbamoyl-pyrrolidin-1-yl]carbonyl}phenyl)-10b-fluoro-1-{[(fluoromethyl)sulfanyl]carbonyl}-11-hydroxy-10a,12a-dimethyl-1,2,3,3a,3b,4,5,7,10, 10a,10b,11,12,12a-tetradecahydrocyclo-penta[5,6]naphtho [1,2-f]indazol-1-yl propanoate], the pIC50 was 8.44.

Regarding `CCC(=O)O[C@]1(C(=O)SCF)CC[C@H]2[C@@H]3CCC4=Cc5c(cnn5-c5cccc(C(=O)NC6CCCC6)c5)C[C@]4(C)[C@H]3[C@@H](O)C[C@@]21C` [Example 62, (1R,3aS,3bS,10aR, 10bS,11S,12aS)-7-[3-(cyclopentylcarbamoyl)phenyl]-1-{[(fluoromethyl)sulfanyl]carbonyl}-11-hydroxy-10a,12a-dimethyl-1,2,3,3a,3b,4,5,7,10, 10a,10b,11,12,12a-tetradecahydrocyclo-penta[5,6]naphtho [1,2-f]indazol-1-yl propanoate], the pIC50 was 8.44.
